# Source: patent US11707442B2, “Antibacterial and antifungal compounds” (The General Hospital Corporation, priority 2015, dated 2023)
# Entries after “also recorded” stand apart in the source; their conditions may differ. Where two headings read alike, the source gives them in different places.
# What was measured:
# [1] = test system: E. faecalis; assay: MIC, broth microdilution; format: cell-based, Enterococcus faecalis; settings: result in words
# Procedure: (§1) To test the bacterial MICs for compounds described herein, the total volume in each well was 100 μl of test compounds and bacterial cells in MH broth. Two-fold serial dilutions were carried out to get compounds in the concentration range 0.0625-64 μg/ml. The bacterial concentration was adjusted to an initial OD600 of 0.03. After incubation at 35° C. for 18 hrs, the absorbance was measured at 595 nm in accordance with CLSI document M07-A8. The MICs of antibiotics were determined by the standard microdilution method recommended by the Clinical and Laboratory Standards Institute.
# [2] = test system: S. aureus; assay: Minimal inhibitory concentration (MIC), broth microdilution; format: cell-based, Staphylococcus aureus; settings: for MIC: Staphylococcus aureus
# Source text: (§2) Bacterial strains and growth conditions and persister isolation: methicillin-resistant S. aureus (MRSA) strain MW2 BAA-1707, vancomycin-resistant S. aureus strain VRS 1, 11 clinical S. aureus isolates, 8 clinical Enterococcus faecium isolates, Klebsiella pneumoniae WGLW2 (BEI Resources, Manassas, Va., USA), Acinetobacter baumannii ATCC 17978, Pseudomonas aeruginosa PA14, and Enterobacter aerogenes ATCC 13048 were used to test antimicrobial activity (See Table 1a). S. aureus and E. faecium strains were grown in tryptic soy broth (TSB) (BD, Franklin Lakes, N.J., USA) or brain-heart infusion (BHI) broth (BD, Franklin Lakes, N.J., USA), respectively at 37° C. at 225 rpm. K. pneumoniae, A. baumannii, P. aeruginosa, and E. aerogenes were grown in Luria Bertani (LB) broth (BD, Franklin Lakes, N.J., USA).
# as §1, with “Two-fold serial dilutions were carried out to get compounds in the concentration range 0.0625-64 μg/ml.” left out
# [3] = test system: C. elegans infected with MRSA strain MW2; format: in vivo; settings: result in words
# Procedure: The C. elegans-MRSA liquid infection assay has been described (Rajamuthiah et al. Plos One. 2014; 9(2):e89189). In brief, 4,500 glp-4 (bn2); sek-1(km4) L1 hatchlings were grown on SK-HB101 agar plates for 52 hours at the restrictive temperature of 25° C. until animals became sterile young adults and later harvested with M9 buffer. S. aureus MW2 was grown overnight at 37° C. in TSB, first under aerobic conditions and later shifted to anaerobic growth conditions at 37° C. The infection assay was performed in standard 384-well assay plates, in the presence of the compound being tested or 1% dimethyl sulfoxide (DMSO) as a control. Bacteria were added to the wells at a final OD600 of 0.06, followed by the use of a Complex Object Parametric Analyzer and Sorter (COPAS) large particle sorter (Union Biometrica, Holliston, Mass., USA) to transfer 15 adult worms to each well of an assay plate. After 5 days of incubation in a humidified chamber at 25° C., the bacteria and other debris were washed from the wells with a microplate washer and the worms were stained with the vital dye Sytox Orange (Life Technologies). After overnight incubation at 25° C. in a humidified chamber, the plates were imaged using an Image Xpress Micro automated microscope (Molecular Devices, Sunnyvale, Calif., USA), capturing both transmitted light and TRITC (535 nm excitation, 610 nm emission) fluorescent images with a 2× objective. The images from the infection assay were processed using the open source image analysis software CellProfiler and analysis modules as described previously. The ratio of Sytox worm area to bright field worm area, and the resultant percentage survival data, is calculated by the software for each well of the assay plates. The assay was performed in triplicate comparing the survival of worms at various concentrations of drugs.
# Killing assays were carried out as described in Methods using S. aureus MRSA MW2 and 10 μg/ml retinoids, 10 μg/ml vancomycin (positive control), or 1% DMSO (negative control) at 25° C. for 5 days. Data are representative of three independent experiments. (B) Chemical structures of synthetic retinoids. (C) Growth of MRSA strain MW2 exposed to the indicated concentrations of compounds was quantified by measuring OD600 after 18 h in tryptic soy broth (TSB). (D) C. elegans infected with MRSA strain MW2 was treated with indicated concentrations of compounds. Percent survival of C. elegans was normalized to C. elegans treated with DMSO. (E-F) MRSA persisters prepared as described in Methods were treated with the indicated concentrations of each retinoid. Viability was measured by serial dilution and plating on TSA plates. The data points on the x-axis are below the level of detection (2×10^2 CFU/ml). (E,F) Results are shown as means±s.d.; n=3.
# [4] = test system: E. faecium; assay: MIC, broth microdilution; format: cell-based, Enterococcus faecium; settings: for MIC: Enterococcus faecium
# Source text: as §2
# as §1, with “Two-fold serial dilutions were carried out to get compounds in the concentration range 0.0625-64 μg/ml.” left out
# [5] = test system: A. baumannii; assay: MIC, broth microdilution; format: cell-based, Acinetobacter baumannii; settings: Acinetobacter baumannii, ATCC17978; A. baumannii ATCC 17978; read-out: Minimum inhibitory concentration
# Source text: as §2
# as §1, with “Two-fold serial dilutions were carried out to get compounds in the concentration range 0.0625-64 μg/ml.” left out
# [6] = test system: E. aerogenes ATCC 13048; assay: MIC, broth microdilution; format: cell-based, Enterobacter aerogenes; settings: Klebsiella aerogenes, ATCC13048; E. aerogenes ATCC 13048; read-out: Minimum inhibitory concentration
# Source text: as §2
# as §1, with “Two-fold serial dilutions were carried out to get compounds in the concentration range 0.0625-64 μg/ml.” left out
# [7] = test system: P. aeruginosa; assay: MIC, broth microdilution; format: cell-based, Pseudomonas aeruginosa; settings: Pseudomonas aeruginosa; P. aeruginosa PA14; read-out: Minimum inhibitory concentration
# Source text: as §2
# as §1, with “Two-fold serial dilutions were carried out to get compounds in the concentration range 0.0625-64 μg/ml.” left out
# [8] = test system: K. pneumonia WGLW2; assay: MIC, broth microdilution; format: cell-based, Klebsiella pneumoniae; settings: Klebsiella pneumoniae; K. pneumonia WGLW2; read-out: Minimum inhibitory concentration
# Source text: as §2
# as §1, with “Two-fold serial dilutions were carried out to get compounds in the concentration range 0.0625-64 μg/ml.” left out
structure (smiles),measurement,setting,value
"COc1ccc(-c2ccc3cc(C(=O)O)ccc3c2)cc1C12CC3CC(CC(C3)C1)C2 [Adapalene, 6-(4-methoxy-3-tricyclo[3.3.1.13,7]dec-1-ylphenyl)-2-naphthalenecarboxylic acid]",susceptibility of E. faecalis,[1],not inhibited
same,direct inhibition of MRSA growth,"[2]; MRSA MW2, result in words",did not inhibit; also recorded: did not have significant antimicrobial activity
same,rescue of C. elegans from MRSA infection,[3],nor did it protect
same,susceptibility of E. faecium,[4]; result in words,not inhibited
Cc1onc(-c2ccccc2)c1C(=O)N[C@@H]1C(=O)N2[C@@H]1SC(C)(C)[C@@H]2C(=O)O [Oxacillin],MIC,[5],> 64 µg/mL
same,MIC,"[2]; S. aureus BF1, read-out: Minimum inhibitory concentration",> 64 µg/mL
same,MIC,"[2]; S. aureus BF2, read-out: Minimum inhibitory concentration",> 64 µg/mL
same,MIC,"[2]; S. aureus BF3, read-out: Minimum inhibitory concentration",32 µg/mL
same,MIC,"[2]; S. aureus BF4, read-out: Minimum inhibitory concentration",16 µg/mL
same,MIC,"[2]; S. aureus BF5, read-out: Minimum inhibitory concentration",> 64 µg/mL
same,MIC,"[2]; S. aureus BF6, read-out: Minimum inhibitory concentration",1 µg/mL
same,MIC,"[2]; S. aureus BF7, read-out: Minimum inhibitory concentration",> 64 µg/mL
same,MIC,"[2]; S. aureus BF8, read-out: Minimum inhibitory concentration",> 64 µg/mL
same,MIC,"[2]; S. aureus BF9, read-out: Minimum inhibitory concentration",0.25 µg/mL
same,MIC,"[2]; S. aureus BF10, read-out: Minimum inhibitory concentration",> 64 µg/mL
same,MIC,"[2]; S. aureus BF11, read-out: Minimum inhibitory concentration",> 64 µg/mL
same,MIC,"[2]; S. aureus MW2, read-out: Minimum inhibitory concentration",64 µg/mL
same,MIC,"[2]; S. aureus VRS1, read-out: Minimum inhibitory concentration",> 64 µg/mL
same,MIC,"[2]; Staphylococcus aureus clinical isolate BF1 (Table 5), read-out: Drug MIC",> 64 µg/mL
same,MIC,"[2]; Staphylococcus aureus clinical isolate BF2 (Table 5), read-out: Drug MIC",> 64 µg/mL
same,MIC,"[2]; Staphylococcus aureus clinical isolate BF3 (Table 5), read-out: Drug MIC",32 µg/mL
same,MIC,"[2]; Staphylococcus aureus clinical isolate BF4 (Table 5), read-out: Drug MIC",16 µg/mL
same,MIC,"[2]; Staphylococcus aureus clinical isolate BF5 (Table 5), read-out: Drug MIC",> 64 µg/mL
same,MIC,"[2]; Staphylococcus aureus clinical isolate BF6 (Table 5), read-out: Drug MIC",1 µg/mL
same,MIC,"[2]; Staphylococcus aureus clinical isolate BF7 (Table 5), read-out: Drug MIC",> 64 µg/mL
same,MIC,"[2]; Staphylococcus aureus clinical isolate BF8 (Table 5), read-out: Drug MIC",> 64 µg/mL
same,MIC,"[2]; Staphylococcus aureus clinical isolate BF9 (Table 5), read-out: Drug MIC",0.25 µg/mL
same,MIC,"[2]; Staphylococcus aureus clinical isolate BF10 (Table 5), read-out: Drug MIC",> 64 µg/mL
same,MIC,"[2]; Staphylococcus aureus clinical isolate BF11 (Table 5), read-out: Drug MIC",> 64 µg/mL
same,MIC,[6],> 64 µg/mL
same,MIC,"[4]; E. faecium C68, read-out: Minimum inhibitory concentration",> 64 µg/mL
same,MIC,"[4]; E. faecium D14, read-out: Minimum inhibitory concentration",> 64 µg/mL
same,MIC,"[4]; E. faecium D24, read-out: Minimum inhibitory concentration",> 64 µg/mL
same,MIC,"[4]; E. faecium D25, read-out: Minimum inhibitory concentration",> 64 µg/mL
same,MIC,"[4]; E. faecium D29, read-out: Minimum inhibitory concentration",> 64 µg/mL
same,MIC,"[4]; E. faecium E007, read-out: Minimum inhibitory concentration",> 64 µg/mL
same,MIC,"[4]; E. faecium WB213, read-out: Minimum inhibitory concentration",> 64 µg/mL
same,MIC,"[4]; E. faecium WC176, read-out: Minimum inhibitory concentration",> 64 µg/mL
same,MIC,"[4]; Enterococcus faecium clinical isolate C68 (Table 6), read-out: Drug MIC",> 64 µg/mL
same,MIC,"[4]; Enterococcus faecium clinical isolate D14 (Table 6), read-out: Drug MIC",2 µg/mL
same,MIC,"[4]; Enterococcus faecium clinical isolate D24 (Table 6), read-out: Drug MIC",1 µg/mL
same,MIC,"[4]; Enterococcus faecium clinical isolate D25 (Table 6), read-out: Drug MIC",1 µg/mL
same,MIC,"[4]; Enterococcus faecium clinical isolate D29 (Table 6), read-out: Drug MIC",2 µg/mL
same,MIC,"[4]; Enterococcus faecium clinical isolate W312 (Table 6), read-out: Drug MIC",> 64 µg/mL
same,MIC,"[4]; Enterococcus faecium clinical isolate WC176 (Table 6), read-out: Drug MIC",> 64 µg/mL
same,MIC,[7],> 64 µg/mL
same,MIC,[8],> 64 µg/mL
